Patent US8569306B2, “JNK modulators” (Hoffmann-La Roche, Inc., priority 2009, dated 2013)

What was measured:
Human JNK2α2 = Human JNK2α2 (Homo sapiens (Human), UniProt P45984); experiment: JNK assay in vitro, phosphorylation of GST-ATF2 (19-96) with [γ-33P] ATP; format: biochemical; conditions: Human JNK2α2, 1 nM enzyme, 1 μM ATF2, 8 μM ATP; read-out: JNK2 − IC50
Description: (§1) JNK activity was measured by phosphorylation of GST-ATF2 (19-96) with [γ-^33P] ATP. […] Human JNK2α2 assay contains 1 nM enzyme, 1 μM ATF2, 8 μM ATP with 1 μCi [γ-^33P] ATP. Human JNK1α1 assay contains 2 nM enzyme, 1 μM ATF2, 6 μM ATP with 1 μCi [γ-^33P] ATP. Human JNK3 (Upstate Biotech #14-501M) assay contains 2 nM enzyme, 1 μM ATF2, 4 μM ATP with 1 μCi [γ-^33P] ATP. The enzyme assay was carried out in the presence or absence of several compound concentrations. JNK and compound were pre-incubated for 10 min, followed by initiation of the enzymatic reaction by adding ATP and the substrate. The reaction mixture was incubated at 30° C. for 30 min. At the end of incubation, the reaction was terminated by transferring 25 μl of the reaction mixture to 150 μl of 10% glutathione Sepharose® slurry (Amersham #27-4574-01) containing 135 mM EDTA. The reaction product was captured on the affinity resin, and washed on a filtration plate (Millipore, MABVNOB50) with phosphate buffered saline for six times to remove free radionucleotide. The incorporation of ^33P into ATF2 was quantified on a microplate scintillation counter (Packard Topcount). Compound inhibition potency on JNK was measured by IC50 value generated from ten concentration inhibition curves fitted into the 3-parameter model: % inhibition=Maximum/(1+(IC50/[Inhibitor])^slope). Data were analyzed on Microsoft Excel for parameter estimation.

Human JNK1α1 = Human JNK1α1 (Homo sapiens (Human), UniProt P45983); experiment: as above; format: biochemical; conditions: Human JNK1α1, 2 nM enzyme, 1 μM ATF2, 6 μM ATP; read-out: JNK1 − IC50
Chain of Human JNK1α1 (P45983 other isoform, or with tags, fused parts or gaps): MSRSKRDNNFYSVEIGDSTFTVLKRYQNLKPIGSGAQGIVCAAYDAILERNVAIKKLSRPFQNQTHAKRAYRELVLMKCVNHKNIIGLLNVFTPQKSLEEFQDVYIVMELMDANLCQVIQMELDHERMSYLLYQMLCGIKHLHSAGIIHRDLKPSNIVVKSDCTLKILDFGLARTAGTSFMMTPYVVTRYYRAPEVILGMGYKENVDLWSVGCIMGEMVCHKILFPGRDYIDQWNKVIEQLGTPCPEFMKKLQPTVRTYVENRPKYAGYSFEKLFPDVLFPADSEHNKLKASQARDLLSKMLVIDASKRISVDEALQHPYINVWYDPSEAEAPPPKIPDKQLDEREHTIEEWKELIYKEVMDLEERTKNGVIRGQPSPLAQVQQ
Description: as §1

Chain of Human JNK2α2 (P45984 whole entry): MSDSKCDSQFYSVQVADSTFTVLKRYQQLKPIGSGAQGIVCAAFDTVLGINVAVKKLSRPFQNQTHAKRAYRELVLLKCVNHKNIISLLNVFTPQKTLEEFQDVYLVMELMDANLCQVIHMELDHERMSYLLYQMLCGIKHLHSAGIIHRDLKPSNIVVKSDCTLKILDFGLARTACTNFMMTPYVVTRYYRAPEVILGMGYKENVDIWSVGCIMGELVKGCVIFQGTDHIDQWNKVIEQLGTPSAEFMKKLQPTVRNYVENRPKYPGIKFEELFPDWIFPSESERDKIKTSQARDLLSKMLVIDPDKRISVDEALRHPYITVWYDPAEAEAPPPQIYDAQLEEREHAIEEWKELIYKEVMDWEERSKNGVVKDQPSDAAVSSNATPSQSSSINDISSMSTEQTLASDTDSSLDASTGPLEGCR

| SMILES | melting point [°C] | IC50 (Human JNK2α2) [nM] | IC50 (Human JNK1α1) [nM] |
| --- | --- | --- | --- |
| CC(C)(O)c1cccn2c(-c3ccnc(N[C@H]4CC[C@H](CS(C)(=O)=O)CC4)n3)cnc12 [Compound 1, 2-{3-[2-(4-methanesulfonylmethyl-cyclohexylamino)-pyrimidin-4-yl]-imidazo[1,2-a]pyridin-8-yl}-propan-2-ol] | 223 to 224 | 295 |  |
| CC(C)(O)c1cccn2c(-c3ccnc(N[C@H]4CC[C@H](NS(C)(=O)=O)CC4)n3)cnc12 [Compound 3, N-(4-{4-[8-(1-Hydroxy-1-methyl-ethyl)-imidazo[1,2-a]pyridine-3-yl]-pyrimidin-2-ylamino}-cyclohexyl)-methanesulfonamide] | 249 to 250 |  |  |
| O=C([C@H]1CC[C@H](Nc2nccc(-c3cnc4c(OCc5ccccc5)cccn34)n2)CC1)N1CCC(O)CC1 [Compound 6, {4-[4-(8-Benzyloxy-imidazo[1,2-a]pyridin-3-yl)-pyrimidin-2-ylamino]-cyclohexyl}-(4-hydroxy-piperidin-1-yl)-methanone] | 210 to 212 | 55.9 | 33.3 |
| CS(=O)(=O)N[C@H]1CC[C@H](Nc2nccc(-c3cnc4c(OCc5ccccc5)cccn34)n2)CC1 [Compound 7, N-{4-[4-(8-benzyloxy-imidazo[1,2-a]pyridin-3-yl)-pyrimidin-2-ylamino]-cyclohexyl}-methanesulfonamide] | 236.9 to 241 | 52.7 | 23.7 |
| CS(=O)(=O)N[C@H]1CC[C@H](Nc2nccc(-c3cnc4ccccn34)n2)CC1 [Compound 10, N-[4-(4-Imidazo[1,2-a]pyridin-3-yl-pyrimidin-2-ylamino)-cyclohexyl]-methanesulfonamide] | 259 to 261 | 214 | 56.7 |
| O[C@H]1CC[C@H](Nc2nccc(-c3cnc4ccccn34)n2)CC1 [Compound 11, 4-(4-Imidazo[1,2-a]pyridin-3-yl-pyrimidin-2-ylamino)-cyclohexanol] |  | 254 | 86.6 |

Further compounds by falling IC50 (Human JNK2α2), results first:

| melting point [°C] | IC50 (Human JNK2α2) [nM] | IC50 (Human JNK1α1) [nM] | SMILES |
| --- | --- | --- | --- |
| 188 to 190 | 369 |  | CC(C)(O)c1cccn2c(-c3ccnc(N[C@H]4CC[C@H](C(=O)N5CCC(O)CC5)CC4)n3)cnc12 [Compound 2, (4-{4-[8-(1-hydroxy-1-methyl-ethyl)-imidazo[1,2-a]pyridin-3-yl]-pyrimidin-2-ylamino}-cyclohexyl)-(4-hydroxy-piperidin-1-yl)-methanone] |
| > 300 | 124 |  | CN(C)S(=O)(=O)N[C@H]1CC[C@H](Nc2nccc(-c3cnc4c(C(C)(C)O)cccn34)n2)CC1 [Compound 4, N-(4-{4-[8-(1-Hydroxy-1-methyl-ethyl)-imidazo[1,2-a]pyridine-3-yl]-pyrimidin-2-ylamino}-cyclohexyl)-(N,N-dimethylamino)sulfonamide] |
| 147 to 149 | 104 | 48.9 | CCOC(=O)[C@H]1CC[C@H](Nc2nccc(-c3cnc4c(OCc5ccccc5)cccn34)n2)CC1 [Compound 8, 4-[4-(8-benzyloxy-imidazo[1,2-a]pyridine-3-yl)-pyrimidin-2-ylamino]-cyclohexanecarboxylic acid ethyl ester] |
| 258 to 259 | 50.3 | 21.6 | CS(=O)(=O)CCCOc1cccn2c(-c3ccnc(N[C@H]4CC[C@H](C(=O)N5CCC(O)CC5)CC4)n3)cnc12 [Compound 5, (4-Hydroxy-piperidin-1-yl)-(4-{4-[8-(3-methanesulfonyl-propoxy)-imidazo[1,2-a]pyridin-3-yl]-pyrimidin-2-ylamino}-cyclohexyl)-methanone] |
| 236 to 238 | 49.4 | 26.9 | O[C@H]1CC[C@H](Nc2nccc(-c3cnc4c(OCc5ccccc5)cccn34)n2)CC1 [Compound 9, 4-[4-(8-Benzyloxy-imidazo[1,2-a]pyridin-3-yl)-pyrimidin-2-yl-amino]-cyclohexanol] |
